Here are results for 4 compounds from PMC9515952, “Tentative exploration of pharmacodynamic substances: Pharmacological effects, chemical compositions, and multi-components pharmacokinetic characteristics of ESZWD in CHF-HKYd rats” (Frontiers in Cardiovascular Medicine, 2022).

A short description of data set [1]: Pharmacokinetics of four components of ESZWD in CHF-HKYd rat serum by UPLC-MS/MS. The arrangement: AUC(0-t) / AUC(0−t) / AUC(0-inf) / AUC(0−∞): concentration or dose not given beside the values. The conditions noted are these: CHF-HKYd rat serum after oral administration of ESZWD, mean ± SD, n = 6. Format: in vivo. As for the experimental part:
All rats were randomly divided into control group, model group, ESZWD low-dose (3.96 g/kg), medium-dose (7.92 g/kg), high-dose (15.84 g/kg) groups, and positive control group (benazepril, 0.5 mg/kg), with six rats in each group. The CHF-HKYd was established after 1 week of feeding. ESZWD and benazepril were administered by gavage separately for 4 weeks after successful modeling, except for the control group. Blood was collected for 5, 10, 20, 30, 45 min, 1, 2, 4, 6, 8, 12, and 24 h, standing for 2 h and centrifuged at 4°C, 3,500 rpm for 10 min, the supernatant was retained. The state of rats was observed and the urine volume at 24 h was measured. The structure and function of rat heart were evaluated by doppler ultrasonography. Serum biomarkers including myocardial injury indicators NT-proBNP, angiotensinII (AngII), aldosterone (ALD), reactive oxygen species (ROS), superoxide dismutase (SOD), malondialdehyde (MDA), and tumor necrosis factor α (TNF-α) and interleukin 6 (IL-6) were detected by ELISA.
Chromatographic analysis was performed using ACQUITY UPLC BEH C18 column (2.1 × 50 mm, […]), the mobile phase was acetonitrile (A) 0.1% formic acid water (B), the flow rate was set as 0.2 mL·min^−1, the column temperature was 35°C, the injection volume was 2 μL, and the gradient conditions were as follows: 0–8 min: 6–11%A, 8–23 min: 11–19%A, 23–45 min: 19–38%A, 45–55 min: 38–47%A, 55–55.1 min: 47–52%A, 55.1–65 min: 52–90%A, 65–66 min: 90–6%A of UPLC-Q-TOF/MS analysis and 0–3 min: 8–10%A, 3–3.5 min: 10–70% A, 3.5–5: 70–80%A, 5–5.1 min: 80–8% A, 5.1–6 min: 8% A of UPLC-MS/MS.
Mass spectrometric detection of UPLC-MS/MS analysis was carried out on electrospray ionization (ESI) ion source, multiple reaction monitoring (MRM) mode, ion spray voltage of 5,500 V, the curtain gas and collision gas were 40 and 9 kPa, respectively, declustering potential (DP) and collision voltage (CE) are shown in Table 1.

Data set [2] can be described thus: Stability of four compounds in rat serum (UPLC-MS/MS method validation). The note with it: n = 5; for Stability, Room temperature, Mean ± SD: 4 h at room temperature (25°C); for Stability, Automatic sampler, Mean ± SD: 8 h in the automatic sampler; for Stability, Long-term freeze, Mean ± SD: 7 d at −80°C; for Stability, Multigelation, Mean ± SD: three freeze and thaw cycles.
Experimental: (§1) The stability of all probe drugs was evaluated by LQC and HQC samples under different experimental conditions, including short-term stability [4 h at room temperature (25°C), 8 h in the automatic sampler, and three freeze and thaw cycles, respectively] and long-term stability (7 d at −80°C).

The conditions of data set [3]: rat; for Stability, Room temperature, Mean ± SD: 4 h; for Stability, Automatic sampler, Mean ± SD: 8 h; for Stability, Long-term freeze, Mean ± SD: 7 d.
Experimental: as §1
Setting [4] is: added 20 ng/mL (salsolinol) or 1 ng/mL (others).
The mark [5] stands for this setting: added 100 ng/mL (salsolinol) or 10 ng/mL (others).
Setting [6] is: added 750 ng/mL (salsolinol) or 150 ng/mL (others).

Where two headings read alike, the source gives them in different places.

A word on the AUC(0-inf): it is the area under the concentration-time curve extrapolated to infinity. A word on the AUC(0-t): it is exposure summed from dosing to a finite time, without extrapolation to infinity. As a reminder, the half-life is the time in which the quantity being followed falls by half. Broadly, the Cmax is the maximum level reached in the sampled fluid or tissue. By Tmax is commonly meant the time at which the peak concentration occurs.

In data set [1], `CCN1C[C@]2(COC)[C@H](O)C[C@H](OC)[C@@]34[C@@H]5C[C@@]6(O)[C@H](OC(=O)c7ccccc7)[C@@H]5[C@@](OC(C)=O)([C@@H]([C@H](OC)[C@H]23)[C@@H]14)[C@@H](O)[C@@H]6OC` [Aconitine] gave a V/F of 2679 ± 1574 L/kg. Moreover, in data set [1] (Sprague-Dawley (SD), in vivo), the AUC(0-inf) stood at 50.1 ± 16 ng·h/mL, the AUC(0-t) was found to be 48.9 ± 16.4 ng·h/mL and the half-life was 4.24 ± 1.83 h. In addition, in data set [1] (Sprague-Dawley (SD), in vivo, read-out: CL/F (converted)), the CL/F is 7080 mL/min/kg. Further, the Cmax in data set [1] (Sprague-Dawley (SD), in vivo, read-out: Cmax) was determined as 8.96 ± 2.22 ng/mL. The Tmax in data set [1] (Sprague-Dawley (SD), in vivo, read-out: Tmax) was found to be 0.75 h. In data set [1] (Sprague-Dawley, in vivo), this compound had a half-life of around 4 h. Moreover, in data set [2] (setting [4]), the “Stability, Room temperature, Mean ± SD” value came out at 1.049 ± 0.05 ng/mL; the “Stability, Automatic sampler, Mean ± SD” value is 1.087 ± 0.12 ng/mL; the “Stability, Long-term freeze, Mean ± SD” value turned out to be 1.082 ± 0.05 ng/mL; the “Stability, Multigelation, Mean ± SD” value came to 1.125 ± 0.11 ng/mL. Further, in data set [2] (setting [5]), the “Stability, Room temperature, Mean ± SD” value came out at 9.558 ± 0.29 ng/mL; the “Stability, Automatic sampler, Mean ± SD” value stood at 9.053 ± 0.24 ng/mL; the “Stability, Long-term freeze, Mean ± SD” value was found to be 10.05 ± 0.97 ng/mL; the “Stability, Multigelation, Mean ± SD” value is 9.042 ± 0.48 ng/mL. In data set [2] (setting [6]), the “Stability, Room temperature, Mean ± SD” value came out at 163.7 ± 5.25 ng/mL; the “Stability, Automatic sampler, Mean ± SD” value was determined as 162.6 ± 9.72 ng/mL; the “Stability, Long-term freeze, Mean ± SD” value came out at 157.4 ± 3.86 ng/mL; the “Stability, Multigelation, Mean ± SD” value came to 156.9 ± 8.39 ng/mL.
The compound `C[C@@]12C[C@@]3(O)O[C@@H](O1)[C@]1(COC(=O)c4ccccc4)[C@H]3C[C@@]12O[C@@H]1O[C@H](CO)[C@@H](O)[C@H](O)[C@H]1O` [Paeoniflorin] displayed a V/F in data set [1] of 41.20 ± 0.83 L/kg. In data set [1] (Sprague-Dawley (SD)), this compound showed an AUC(0-inf) of 2260 ± 179 ng·h/mL, an AUC(0-t) of 2240 ± 178 ng·h/mL and a half-life of 3.22 ± 0.34 h. Besides, in data set [1] (Sprague-Dawley (SD), read-out: CL/F (converted)), the CL/F is 148 mL/min/kg. In data set [1] (Sprague-Dawley (SD), read-out: Cmax), the Cmax amounted to 198 ± 27.7 ng/mL. In addition, in data set [1] (Sprague-Dawley (SD), read-out: Tmax), the Tmax worked out at 6 ± 2.54 h. Also, the half-life in data set [1] (Sprague-Dawley) is around 3 h. For the same compound, in data set [3] (1 ng/mL), the “Stability, Multigelation, Mean ± SD” value stood at 1.012 ± 0.07 ng/mL; the “Stability, Room temperature, Mean ± SD” value was 1.046 ± 0.06 ng/mL; the “Stability, Automatic sampler, Mean ± SD” value came to 1.053 ± 0.02 ng/mL; the “Stability, Long-term freeze, Mean ± SD” value turned out to be 1.010 ± 0.08 ng/mL. In addition, in data set [3] (10 ng/mL), the “Stability, Multigelation, Mean ± SD” value amounted to 10.41 ± 0.73 ng/mL; the “Stability, Room temperature, Mean ± SD” value turned out to be 10.18 ± 0.72 ng/mL; the “Stability, Automatic sampler, Mean ± SD” value turned out to be 10.51 ± 0.98 ng/mL; the “Stability, Long-term freeze, Mean ± SD” value worked out at 10.19 ± 0.97 ng/mL. In data set [3] (150 ng/mL), the “Stability, Multigelation, Mean ± SD” value was determined as 162.2 ± 9.25 ng/mL; the “Stability, Room temperature, Mean ± SD” value stood at 160.7 ± 5.68 ng/mL; the “Stability, Automatic sampler, Mean ± SD” value turned out to be 160.2 ± 6.15 ng/mL; the “Stability, Long-term freeze, Mean ± SD” value came to 149.6 ± 11.70 ng/mL.
`C[C@@H]1NCCc2cc(O)c(O)cc21` [Salsolinol]: in data set [1], the “AUC(0−t)” value was 2,327 ± 261.0 ng/mL·h, the “AUC(0−∞)” value is 2,344 ± 265.7 ng/mL·h, the CL/F worked out at 143.8 ± 16 mL/min/kg and the Cmax was determined as 314.2 ± 36.84 ng/mL. Further, in data set [1], the T1/2 is given as 3.271 ± 0.58 h, the Tmax is on record as 1.25 ± 0.59 h and the V/F was 40.68 ± 9.03 L/kg. Moreover, the T1/2 result in data set [1] (listed as salsolinol) is on record as “about 3 h”. In data set [2] (setting [4]), the “Stability, Room temperature, Mean ± SD” value is 21.07 ± 0.74 ng/mL; the “Stability, Automatic sampler, Mean ± SD” value was 20.68 ± 0.61 ng/mL; the “Stability, Long-term freeze, Mean ± SD” value stood at 20.9 ± 1.2 ng/mL; the “Stability, Multigelation, Mean ± SD” value worked out at 21.15 ± 0.54 ng/mL. Also, in data set [2] (setting [5]), the “Stability, Room temperature, Mean ± SD” value was found to be 112.2 ± 4.13 ng/mL; the “Stability, Automatic sampler, Mean ± SD” value came to 111.3 ± 2.63 ng/mL; the “Stability, Long-term freeze, Mean ± SD” value was found to be 103.9 ± 6.16 ng/mL; the “Stability, Multigelation, Mean ± SD” value came to 110.7 ± 1.34 ng/mL. In data set [2] (setting [6]), the “Stability, Room temperature, Mean ± SD” value turned out to be 700.5 ± 49.6 ng/mL; the “Stability, Automatic sampler, Mean ± SD” value turned out to be 716.3 ± 22.1 ng/mL; the “Stability, Long-term freeze, Mean ± SD” value stood at 685.1 ± 43.66 ng/mL; the “Stability, Multigelation, Mean ± SD” value is 727.6 ± 68.05 ng/mL.
On to Miltrione, for which, in data set [1], the “AUC(0−t)” value is listed as 1,098 ± 69.72 ng/mL·h, the “AUC(0−∞)” value was 1,125 ± 84.73 ng/mL·h, the CL/F was found to be 297.8 ± 23 mL/min/kg and the Cmax came out at 178.9 ± 16.24 ng/mL. In addition, in data set [1], the T1/2 was 4.25 ± 0.82 h, the Tmax is on record as 1.00 ± 0.00 h and the V/F came out at 108.7 ± 15.80 L/kg.
